Experimental data reported in publication PMC9738062, “Selectively Halogenated Flavonolignans—Preparation and Antibacterial Activity” (International Journal of Molecular Sciences, 2022).

Key:
[1] = tested on: Vibrio campbellii BAA 1118 (AI-1); assay: microbe, parasite or virus in culture; format: cell-based; conditions: for EC50: Vibrio campbellii, BAA1118, 16 h, read-out: EC50 (concentration that halved the communication); for SI (selectivity index): ratio IC50 (viability) / EC50 (communication), BAA 1118
Text: (§1) Commercially available strains of Vibrio campbellii were used to evaluate the ability of flavonoids and their derivatives to inhibit bacterial quorum sensing. V. campbellii uses two types of autoinducing molecules for its communication—N-acyl-homoserine lactones (Autoinducer I, AI-1, strain BAA 1118) and furanosyl borate diester (Autoinducer II, AI-2, strain BAA 1119). AI-1-based communication is mainly used by Gram-negative bacteria, while AI-2-based communication is found in both Gram-negative and Gram-positive bacteria. The mutant strains of V. campbellii BA1118 and BA1119 respond only to AI-1 or AI-2, respectively, and the response to the respective AI concentration is measured as luminescence. The higher the AI concentration, the higher the luminescence signal. The ability to inhibit the communication was expressed as the selectivity index (SI), calculated as the ratio between the concentration that halved the viability (IC50) and the concentration that halved the communication (EC50) of the respective V. campbellii strains. […] The antimicrobial activity of quorum-sensing inhibitors is undesirable because it creates a selection pressure and can lead to the development of resistance.
(§2) The inhibition of bacterial extracellular communication was measured using Vibrio campbellii strains BAA-1118 and BAA-1119. The experiment was performed according to the methods of Szemerédi et al.. Briefly, 5 × 10^5 CFU/mL (colony-forming units per milliliter) were seeded in an Autoinducer Bioassay medium (NaCl 17.5 g/L, MgSO4 12.3 g/L, Casamino acids 2 g/L, 10 mL of 1 M potassium phosphate pH 7.0, 10 mL of 0.1 M L-arginine, and 10 mL of glycerol in 970 mL of deionized water) in a 96-well plate. Immediately, the tested compounds were added at the final concentration of 0.2–200 µM and luminescence was recorded for 16 h by a SpectraMax i3x microplate reader set at 30 °C, an integration time of 10,000 ms, and shaking for 60 s before measurement. […] The selectivity index was calculated as the […]. The EC50 and IC50 were calculated using GraphPad Prism software version 5.00 for Windows with a nonlinear regression curve fit.

[2] = tested on: Vibrio campbellii BAA 1119 (AI-2); assay: microbe, parasite or virus in culture; format: cell-based; conditions: for EC50: Vibrio campbellii, BAA1119, 16 h, read-out: EC50 (concentration that halved the communication); for SI (selectivity index): ratio IC50 (viability) / EC50 (communication), BAA 1119
Text: as §1, §2

[3] = tested on: Vibrio campbellii BAA 1118 (AI-1); assay: Viability of the quorum-sensing reporter culture (resazurin assay), AI-1 strain; format: cell-based; conditions: BAA1118, V. campbellii BAA 1118, resazurin assay, read-out: IC50 (concentration that halved the viability)
Text: as §1, §2

[4] = tested on: Vibrio campbellii BAA 1119 (AI-2); assay: Viability of the quorum-sensing reporter culture (resazurin assay), AI-2 strain; format: cell-based; conditions: BAA1119, V. campbellii BAA 1119, resazurin assay, read-out: IC50 (concentration that halved the viability)
Text: as §1, §2

[5] = tested on: multidrug-resistant P. aeruginosa; assay: Sensitization of antibiotic-resistant bacteria (compound plus breakpoint antibiotic concentration); format: cell-based, Pseudomonas aeruginosa; conditions: flavonoid 40 µM, 24 h; for Effect on viability in combination with colistin: colistin 2 mg/L; for Effect on viability in combination with imipenem: imipenem 4 mg/L; for Effect on viability in combination with imipenem: key: -: no effect (100% viability) was observed up to the highest flavonolignan concentration tested (>40 µM); reversion of resistance: the compound reversed the resistant phenotype to a sensitive one
Procedure: Clinically relevant antibiotics were selected for sensitization testing according to the European Committee on Antimicrobial Susceptibility Testing (EUCAST). Neither colistin and imipenem at breakpoint concentrations (according to EUCAST, […] and […]) affected the growth of the multidrug-resistant clinical strain of P. aeruginosa. Similarly, neither chloramphenicol and gentamicin at breakpoint concentrations ([…], respectively) affected the multidrug-resistant clinical strain of S. aureus. Flavonoids and their derivatives (1–40 µM) were used in combination therapy, along with the breakpoint concentration of antibiotics. After co-incubation, the minimum inhibitory concentration of flavonoids inhibiting the visible growth of bacteria was determined (Table 2).
Clinical isolates of P. aeruginosa and S. aureus were obtained from the General University Hospital in Prague (Prague, Czech Republic). P. aeruginosa was resistant to ciprofloxacin, oxacillin, ticarcillin, colistin, gentamicin, and imipenem. S. aureus was resistant to ciprofloxacin, gentamicin, erythromycin, chloramphenicol, clindamycin, oxacillin, cefotaxime, and vancomycin. Bacteria were cultivated in Mueller–Hinton broth (MH broth, Merck). The susceptibility of the bacteria was evaluated by the minimum inhibitory concentrations (MIC). The MIC of derivatives in the presence of the antibiotic cut-off concentration was determined according to ISO 20776-1: 2020. The antibiotic cut-off concentration was chosen according to the European Committee on Antimicrobial Susceptibility Testing (EUCAST, Clinical breakpoints—bacteria (ver. 11.0), 1 January 2021). The 40 µM concentration of the derivatives was chosen as the highest concentration for the tests. Cell viability was determined by measuring absorbance (A590 nm) after 24 h incubation at 37 °C, 150 rpm.

[6] = ABTS cation radical scavenging; conditions: vitamin C equivalent antioxidant capacity
Procedure: (§3) To further elucidate how halogenation affects other properties of the flavonoids studied, their 2,2′-azino-bis-(3-ethylbenzothiazoline-6-sulfonic acid) cation (ABTS) and 1,1-diphenyl-2-picrylhydrazyl (DPPH) radical scavenging, the Folin–Ciocalteu reagent (FCR) reducing, the ferric-reducing antioxidant power (FRAP), and the anti-lipoperoxidation activities were evaluated by in vitro methods (Supplementary Information Tables S1 and S2).
(§4) The antiradical activity was evaluated by the ability to scavenge ABTS and DPPH radicals. Reducing capacity was assessed by the ability to reduce the Folin–Ciocalteu reagent (FCR) and ferric ions (FRAP). The ability to inhibit lipid peroxidation of pooled male rat microsomal liver membranes induced by tert-butyl hydroperoxide was also evaluated and the results were expressed as IC50 values.

[7] = Folin-Ciocalteu reagent reduction; conditions: gallic acid equivalents
Procedure: as §3, §4

[8] = Ferric reducing antioxidant power (FRAP); conditions: Fe2+ equivalents
Procedure: as §3, §4

DPPH radical scavenging = conditions: 1,1-diphenyl-2-picrylhydrazyl radical scavenging
Procedure: as §3, §4

[9] = tested on: pooled male rat microsomal liver membranes; assay: Inhibition of lipid peroxidation induced by tert-butyl hydroperoxide; format: biochemical; conditions: male rat microsomes, read-out: ILP IC50
Procedure: as §4

[10] = tested on: lipopolysaccharide-stimulated macrophages (RAW 264.7); assay: Inhibition of nitric oxide production (Griess reagent); format: cell-based, murine; conditions: Mus musculus, RAW264.7; LPS 100 ng/mL, 24 h; highest tested concentration 100 µM; read-out: NO Production IC50
Procedure: The anti-inflammatory activity of the tested flavonolignans was determined as the ability to reduce nitric oxide production by murine macrophages (RAW 264.7) stimulated by bacterial lipopolysaccharides, as previously described. […] For the experiment, 1 × 10^6 cells/mL was seeded into the 96-well plate (100 µL/well). […] After 24 h, the medium was mixed with Griess reagent (0.04 g/mL), prepared freshly in deionized water at the ratio of 1:1. The absorbance was measured after 15 min at 540 nm by the SpectraMax i3x microplate reader. Cell viability was determined by resazurin assay.

SMILES: COc1cc([C@H]2Oc3cc([C@H]4Oc5cc(O)cc(O)c5C(=O)[C@@H]4O)ccc3O[C@@H]2CO)ccc1O [3a, silybin A, reference compound]
- EC50 [1]: 97.1 ± 1 µM
- SI (selectivity index) [1]: 1.3 ± 0.1
- EC50 [2]: 17.1 ± 0.5 µM
- SI (selectivity index) [2]: 7.0 ± 0.4
- IC50 [3]: 131 ± 3.7 µM
- IC50 [4]: 120 ± 3.1 µM
- Effect on viability in combination with colistin [5]: -
- Effect on viability in combination with imipenem [5]: -
- ABTS [CEAC] [6]: 0.50 ± 0.03 CEAC
- FCR [GAE] [7]: 1.35 ± 0.06 GAE
- FRAP [Fe2+eq] [8]: 0.071 ± 0.003 Fe2+eq
- IC50 (DPPH radical scavenging): 322 µM
- IC50 [9]: 213 µM
- IC50 [10]: 53.9 ± 4.9 µM

SMILES: COc1cc([C@@H]2Oc3cc([C@H]4Oc5cc(O)cc(O)c5C(=O)[C@@H]4O)ccc3O[C@H]2CO)ccc1O [3b, silybin B, reference compound]
- EC50 [1]: 121.5 ± 0.6 µM
- SI (selectivity index) [1]: 0.96 ± 0.01
- EC50 [2]: 22.3 ± 0.5 µM
- SI (selectivity index) [2]: 6.8 ± 0.2
- IC50 [3]: 116.6 ± 0.9 µM
- IC50 [4]: 152 ± 2.4 µM
- Effect on viability in combination with colistin [5]: -
- Effect on viability in combination with imipenem [5]: -
- ABTS [CEAC] [6]: 0.55 ± 0.05 CEAC
- FCR [GAE] [7]: 1.39 ± 0.08 GAE
- FRAP [Fe2+eq] [8]: 0.078 ± 0.004 Fe2+eq
- IC50 (DPPH radical scavenging): 259 µM
- IC50 [9]: 291 µM
- IC50 [10]: 55.6 ± 5.5 µM

SMILES: O=C1c2c(O)cc(O)cc2OC(c2ccc(O)c(O)c2)C1O (centres unmarked) [compound 1, taxifolin, reference compound]
- EC50 [1]: 63.7 ± 2.7 µM
- SI (selectivity index) [1]: 1.1 ± 0.1
- EC50 [2]: 7.3 ± 0.3 µM
- SI (selectivity index) [2]: 11.0 ± 0.6
- IC50 [3]: 71 ± 3 µM
- IC50 [4]: 80 ± 1.7 µM
- Effect on viability in combination with colistin [5]: -
- Effect on viability in combination with imipenem [5]: -
- ABTS [CEAC] [6]: 1.08 ± 0.02 CEAC
- FCR [GAE] [7]: 1.92 ± 0.05 GAE
- FRAP [Fe2+eq] [8]: 1.45 ± 0.07 Fe2+eq
- IC50 (DPPH radical scavenging): 2.91 µM
- IC50 [9]: 16.3 ± 1.1 µM
- IC50 [10]: 52.4 ± 1.2 µM

SMILES: O=c1c(O)c(-c2ccc(O)c(O)c2)oc2cc(O)cc(O)c12 [compound 2, quercetin, reference compound]
- EC50 [1]: 15.9 ± 0.5 µM
- SI (selectivity index) [1]: 1.5 ± 0.1
- EC50 [2]: 4.8 ± 0.2 µM
- SI (selectivity index) [2]: 2.2 ± 0.2
- IC50 [3]: 24.5 ± 0.8 µM
- IC50 [4]: 10.6 ± 0.5 µM
- Effect on viability in combination with colistin [5]: -
- Effect on viability in combination with imipenem [5]: -
- ABTS [CEAC] [6]: 2.87 ± 0.23 CEAC
- FCR [GAE] [7]: 2.33 ± 0.05 GAE
- FRAP [Fe2+eq] [8]: 2.84 ± 0.02 Fe2+eq
- IC50 (DPPH radical scavenging): 2.06 µM
- IC50 [9]: 39 ± 2.9 µM
- IC50 [10]: 14.6 ± 2.1 µM
